# Test results as given in article PMC11727121, “Intrinsic PD‐L1 Degradation Induced by a Novel Self‐Assembling Hexapeptide for Enhanced Cancer Immunotherapy” (Advanced Science, 2024).
# Square brackets hold non-standard residues; d marks the D form. Ends that are not written are not given here. Peptide text beside a SMILES is read from it. Met(O) = CS(=O)CC[C@H](N)C(=O)O
# Legend:
# MC38 cells = test: MTT cytotoxicity assay, MC38 cells; assay type: cell-based, mouse; details: 24 h
# Procedure: (§1) In Vitro Cell Cytotoxicity and Cell Apoptosis Assay
# (§2) The cytotoxicity of KFM and KFMo were assessed as follows. Briefly, 4T1, MC38 and HUVEC cells were seeded on 96-well plate (5000 cells per well) overnight.
# (§3) The cells were incubated with 100 µL fresh DMEM containing with various concentration of for 24 h, respectively. Moreover, the 4T1 and MC38 tumor cells co- […]
# (§4) cells viability was evaluated using the MTT assay.
# (§5) Subsequently, the cells at a density of 1 × 104 were cultivated into 96-well plate and then cultured with or without H2O2 (5 µM or 100 µM) for 24 h. The cells viability was evaluated using the MTT assay. […]
# HUVEC cells = test: MTT cytotoxicity assay, HUVEC cells; assay type: cell-based, Human; details: 24 h
# Procedure: as §1, §2, §3, §4, §5
# 4T1 cells [1] = test: MTT cytotoxicity assay, 4T1 cells; assay type: cell-based, mouse; details: 24 h
# Procedure: as §1, §2, §3, §4, §5
# 4T1 cells [2] = test: In vitro immunogenic cell death assay (CRT, HMGB1); assay type: cell-based, mouse; details: 12 h, fluorescence staining
# Procedure: (§6) In vitro Immunogenic Cell Death Assay […]
# (§7) presence of DAMPs within indicated treatments were examined by calreticulin (CRT) and high mobility group box 1 protein (HMGB1) expression level. Firstly, 5 × 104 […]
# (§8) And then, fixed with 4% formaldehyde for 30 min at room temperature, and washed twice with PBS. A blocking solution of 10% goat serum was added to the wells and incubated for 50 min to minimize nonspecific antibody adsorption. The cells were treated with primary antibodies overnight at 4 ℃, subsequently, stained with FITC -labeled secondary antibodies for 2 h, followed by mounting solution with DAPI, images captured by fluorescence microscopy (Leica DMI3000B). The fluorescence intensity was analyzed using Image J.
# (§9) Western Blotting Analysis
# (§10) Cellular proteins were extracted with the lysis buffer containing 8 M urea, 0.05 M Tris-HCl (pH 7.5), 1% β-Mercaptoethanol, 1% protease inhibitor, and 1% phosphatase inhibitor, while tumor protein was extracted with the medium RIPA lysis buffer containing 1% protease inhibitor and 1% phosphatase inhibitors by 1-minute ultrasonication, then kept on ice for 30 minutes and microcentrifugated at 12,000 g for 15 minutes at 4 ℃ to remove debris. Immunoblotting was performed using 30 µg and 50 μg of protein lysates from cells and tumors, respectively . […]
# 4T1 cells [3] = test: Cell apoptosis assay by flow cytometry (Annexin V / PI); assay type: cell-based, mouse; details: 24 h, 5 µM MTX or equivalent, absence of H2O2
# Procedure: In Vitro Cell Cytotoxicity and Cell Apoptosis Assay […]
# plates at a density of 2 × 10^5 cells/well.
# Following incubation, all cells were harvested and
# stained with Annexin V and propidium iodide (PI) according to the manufacturer's
# protocol. Apoptosis was immediately analyzed using flow cytometry.
# MC38 tumor = test: In vivo antitumor study in MC38 tumor-bearing mice; details: MC38 model, peritumoral, MTX 1.5 mg/kg, MET 69.5 mg/kg equivalents, day 0 and 3, n = 5
# PD-L1 [4] = test: Western blot analysis of PD-L1 expression in MC38 cells; assay type: cell-based, mouse; details: compared to PBS control
# Procedure: as §6, §7, §8, §9, §10
# PD-L1 [5] = test: Western blot analysis of PD-L1 expression in 4T1 cells; assay type: cell-based, mouse
# Procedure: as §6, §7, §8, §9, §10
molecule,measurement,setting,value
C[S+]([O-])CC[C@H](NC(=O)[C@H](Cc1ccccc1)NC(=O)[C@H](CC[S+](C)[O-])NC(=O)[C@H](Cc1ccccc1)NC(=O)[C@@H](N)CCCCN)C(=O)N[C@@H](CCCCN)C(N)=O (stereo partly shown) [KFM°] (H-KF[Met(O)]F[Met(O)]K-NH2),cytotoxicity of peptide (MTT),MC38 cells,negligible cytotoxicity
same,cytotoxicity of peptide (MTT),HUVEC cells,negligible cytotoxicity
same,cytotoxicity of peptide (MTT),4T1 cells [1],negligible cytotoxicity
"O=C1c2c(O)ccc(O)c2C(=O)c2c(NCCNCCO)ccc(NCCNCCO)c21 [MTX, mitoxantrone]","CRT expression compared to PBS control, in words",4T1 cells [2],marked increase
same,cytotoxicity of MTX formulations (MTT),MC38 cells; without H2O2,dose‐dependent cytotoxicity
same,percentage of apoptotic cells,4T1 cells [3],61.3%
same,cytotoxicity of MTX formulations (MTT),4T1 cells [1]; without H2O2,dose‐dependent cytotoxicity
same,tumor growth,MC38 tumor,partially slowed tumor growth
"KFMFMK-NH2 [KFM, Lys‐Phe‐Met‐Phe‐Met‐Lys]",cytotoxicity of peptide (MTT),MC38 cells,negligible cytotoxicity
same,cytotoxicity of peptide (MTT),HUVEC cells,negligible cytotoxicity
same,cytotoxicity of peptide (MTT),4T1 cells [1],negligible cytotoxicity
"CN(C)C(=N)N=C(N)N [MET, metformin]","PD-L1 expression (Western blot), in words",PD-L1 [4],reduced
same,"PD-L1 expression (Western blot), in words",PD-L1 [5],reduced
